Data from the supplement of paper PMC10331698.
± gives the standard deviation of the averaged measurements.

Columns and labels:
Assay in all cases: level (log10 ratio to DMSO vehicle control); higher = higher biomarker level / cell amount than vehicle control
Conditions in all cases: in DMSO
Perfluorodecanoic acid = compound: O=C(O)C(F)(F)C(F)(F)C(F)(F)C(F)(F)C(F)(F)C(F)(F)C(F)(F)C(F)(F)C(F)(F)F [Perfluorodecanoic acid]
Procedure: (§1)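 BioMAP Diversity Plus panel of 12 human primary cell co-culture systems (3C, 4H, LPS, SAg, BT, BF4T, BE3C, CASM3C, HDF3CGF, KF3CT, MyoF, Mphg). Compounds were added 1 h before stimulation and left for 24 h (MyoF 48 h; BT 72 h for soluble read-outs or 6 d for IgG). Biomarkers were read by ELISA, cytotoxicity by SRB, PBMC viability and proliferation by Alamar Blue. Each well value was divided by the mean of 8 DMSO control wells on the same plate and log10 transformed; duplicate blinded samples were tested at 4 concentrations.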

[1] = compound: OCC(F)(F)OC(F)(F)C(F)(F)OC(F)(F)CO [1H,1H,8H,8H-Perfluoro-3,6-dioxaoctane-1,8-diol]
Procedure: as §1

Heptafluorobutyramide = compound: NC(=O)C(F)(F)C(F)(F)C(F)(F)F [Heptafluorobutyramide]
Procedure: as §1

[2] = compound: O=C(O)C(F)(F)OC(F)(F)C(F)(F)OC(F)(F)C(=O)O [Perfluoro-3,6-dioxaoctane-1,8-dioic acid]
Procedure: as §1

[3] = compound: CCN(CCO)S(=O)(=O)C(F)(F)C(F)(F)C(F)(F)C(F)(F)C(F)(F)C(F)(F)C(F)(F)C(F)(F)F [N-Ethyl-N-(2-hydroxyethyl)perfluorooctanesulfonamide]
Procedure: as §1

[4] = compound: COC(=O)CCC(F)(F)C(F)(F)C(F)(F)C(F)(F)F [Methyl 2H,2H,3H,3H-perfluoroheptanoate]
Procedure: as §1

Perfluoropentanoic acid = compound: O=C(O)C(F)(F)C(F)(F)C(F)(F)C(F)(F)F [Perfluoropentanoic acid]
Procedure: as §1

Test System	level (log10) (Perfluorodecanoic acid; 6700 nM)	level (log10) (Perfluorodecanoic acid; 20000 nM)	level (log10) ([1]; 6700 nM)	level (log10) ([1]; 20000 nM)	level (log10) ([1]; 60000 nM)	level (log10) (Heptafluorobutyramide; 6700 nM)	level (log10) (Heptafluorobutyramide; 20000 nM)	level (log10) (Heptafluorobutyramide; 60000 nM)	level (log10) ([2]; 6700 nM)	level (log10) ([2]; 20000 nM)	level (log10) ([2]; 60000 nM)	level (log10) ([3]; 6700 nM)	level (log10) ([3]; 20000 nM)	level (log10) ([4]; 6700 nM)	level (log10) ([4]; 20000 nM)	level (log10) ([4]; 60000 nM)	level (log10) (Perfluoropentanoic acid; 6700 nM)	level (log10) (Perfluoropentanoic acid; 20000 nM)	level (log10) (Perfluoropentanoic acid; 60000 nM)
BF4T:uPA	0.015 ± 0.011	-0.235 ± 0.043	-0.0065 ± 0.028	-0.0065 ± 0.03	-0.007 ± 0.03	-0.0045 ± 0.03	-0.006 ± 0.013	-0.006 ± 0.014	-0.007 ± 0.013	-0.015 ± 0.0028	0.0035 ± 0.03	0.008 ± 0.0028	0.0055 ± 0.012	-0.0055 ± 0.026	0.0015 ± 0.012	-0.0145 ± 0.005	-0.0315 ± 0.029	-0.031 ± 0.023	-0.0175 ± 0.033
SAg:Proliferation	0.0435 ± 0.019	0.0255 ± 0.032	-0.025 ± 0.013	-0.0195 ± 0.023	-0.0055 ± 0.015	-0.0035 ± 0.03	-0.0055 ± 0.00071	-0.0265 ± 0.011	-0.017 ± 0.05	-0.011 ± 0.035	-0.0085 ± 0.021	-0.098 ± 0.0057	-0.335 ± 0.098	0.0115 ± 0.029	0.001 ± 0.0014	0.0075 ± 0.0078	-0.0195 ± 0.04	0.0205 ± 0.046	0.0175 ± 0.08
LPS:CD141/Thrombomodulin	0.0035 ± 0.00071	0.002 ± 0.0057	0.004 ± 0.021	0.021 ± 0.018	-0.002 ± 0.014	-0.018 ± 0.05	-0.0175 ± 0.064	-0.0175 ± 0.035	0.0085 ± 0.019	0.0165 ± 0.0092	0.003 ± 0.027	0.117 ± 0.0042	0.201	-0.0375 ± 0.037	-0.0325 ± 0.0092	-0.0255 ± 0.0078	-0.0115 ± 0.047	-0.045 ± 0.073	-0.0085 ± 0.11
SAg:CD40	-0.0095 ± 0.021	-0.0305 ± 0.012	-0.003 ± 0.0057	0.0095 ± 0.013	0.004 ± 0.0042	-0.031 ± 0.042	-0.039 ± 0.042	-0.034 ± 0.068	0.015 ± 0.0028	0.01 ± 0.0057	-0.008 ± 0.013	0 ± 0.028	-0.052 ± 0.023	-0.042 ± 0.04	-0.0415 ± 0.04	-0.053 ± 0.065	0.0105 ± 0.005	0.0025 ± 0.0064	-0.001 ± 0.025
BT:Secreted IgG	-0.014 ± 0.033	-0.018 ± 0.02	-0.0135 ± 0.06	0.0085 ± 0.04	-0.054 ± 0.021	0.034 ± 0.0085	-0.005 ± 0.031	0.0285 ± 0.025	0.032 ± 0.025	0.0095 ± 0.005	-0.0365 ± 0.036	-0.002 ± 0.016	-1.16 ± 0.3	0.015 ± 0.017	-0.002 ± 0.0071	-0.025 ± 0.018	-0.0065 ± 0.016	0.0145 ± 0.0035	-0.009 ± 0.059
BE3C:CD87/uPAR	0.05 ± 0.016	-0.554 ± 0.011	-0.001 ± 0.0099	0.0265 ± 0.016	-0.0125 ± 0.005	0.043 ± 0.04	0.0155 ± 0.016	-0.019 ± 0.017	-0.0105 ± 0.005	-0.0215 ± 0.012	0.008 ± 0.03	0.012 ± 0.016	-0.024 ± 0.028	-0.003 ± 0.0014	-0.0005 ± 0.00071	-0.0185 ± 0.022	-0.0035 ± 0.063	-0.0235 ± 0.026	0.024 ± 0.0014
BF4T:CD106/VCAM-1	-0.026 ± 0.0085	-0.311 ± 0.0042	-0.0125 ± 0.015	-0.006 ± 0.027	0.0245 ± 0.053	-0.006 ± 0.0014	-0.013 ± 0.0085	0.021 ± 0.069	-0.0385 ± 0.022	-0.042 ± 0.0071	0.006 ± 0.071	-0.039 ± 0.0085	-0.0615 ± 0.0092	-0.001 ± 0.02	0.002 ± 0.0028	0.0015 ± 0.0064	-0.0425 ± 0.036	-0.046 ± 0.016	0.018 ± 0.04
BF4T:IL-1alpha	-0.0335 ± 0.0035	-0.247 ± 0.28	-0.004 ± 0.0042	-0.01 ± 0.0042	0.012 ± 0.0028	0.005 ± 0.02	-0.0045 ± 0.012	0.016 ± 0.0071	-0.004 ± 0.0099	0.0085 ± 0.0035	0.006 ± 0.021	0.008 ± 0.016	-0.0175 ± 0.015	-0.0085 ± 0.00071	-0.0185 ± 0.018	0 ± 0.021	-0.016 ± 0.0085	-0.005 ± 0.0071	0.0155 ± 0.046
